Patent US9695155B2, “Herbicidal substituted pyrimidinyloxy benzene compounds” (E. I. DU PONT DE NEMOURS AND COMPANY, priority 2013, dated 2017)

Key:
[1] = system: giant foxtail; test: Test E preemergence; format: in vivo, Setaria faberii; settings: for Foxtail, Giant plant response rating: scale 0 to 100 (0 no effect, 100 complete control)
Procedure, shortened: (§1)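 Test chemicals formulated in a non-phytotoxic solvent mixture containing a surfactant were applied preemergence to seeds in silt loam soil or postemergence to plants at the 1- to 4-leaf stage in potting mix. After 14 to 21 days in a greenhouse, injury was visually rated against controls on a 0-100 scale (0 = no effect, 100 = complete control).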

[2] = system: surinam grass; test: Test E preemergence; format: in vivo, Brachiaria decumbens; settings: for Surinam Grass plant response rating: scale 0 to 100 (0 no effect, 100 complete control)
Procedure, shortened: as §1

[3] = system: soybean; test: Test E preemergence; format: in vivo, Glycine max; settings: for Soybean plant response rating: scale 0 to 100 (0 no effect, 100 complete control)
Procedure, shortened: as §1

[4] = system: kochia; test: Test A postemergence; format: in vivo, Kochia scoparia; settings: 0 to 100 scale where 0 is no effect and 100 is complete control
Procedure, shortened: (§2)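 Greenhouse pot test, loam/sand soil. Formulation: non-phytotoxic solvent mix plus surfactant. Pre: directed spray onto soil after sowing. Post: plants at 1–2 leaf, 2–10 cm. Rated visually vs untreated controls at ~10 d, 0 (no effect) to 100 (complete control).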

[5] = system: hairy beggarticks; test: Test E preemergence; format: in vivo, Bidens pilosa; settings: for Beggarticks plant response rating: scale 0 to 100 (0 no effect, 100 complete control); for Plant response rating, Beggarticks: scale 0 to 100, 0 no effect, 100 complete control
Procedure, shortened: as §1

[6] = system: morningglory; test: Test E preemergence; format: in vivo, Ipomoea coccinea; settings: for Morningglory plant response rating: scale 0 to 100 (0 no effect, 100 complete control)
Procedure, shortened: as §1

[7] = system: sandbur; test: Test E preemergence; format: in vivo, Cenchrus echinatus; settings: for Sandbur plant response rating: scale 0 to 100 (0 no effect, 100 complete control)
Procedure, shortened: as §1

[8] = system: ragweed; test: Test E preemergence; format: in vivo, Ambrosia elatior; settings: for Ragweed plant response rating: scale 0 to 100 (0 no effect, 100 complete control)
Procedure, shortened: as §1

[9] = system: nightshade; test: Test E preemergence; format: in vivo, Solanum ptycanthum; settings: for Nightshade plant response rating: scale 0 to 100 (0 no effect, 100 complete control)
Procedure, shortened: as §1

[10] = system: ragweed; test: Test A postemergence; format: in vivo, Ambrosia elatior; settings: 0 to 100 scale where 0 is no effect and 100 is complete control
Procedure, shortened: as §2

[11] = system: barnyardgrass; test: Test E preemergence; format: in vivo, Echinochloa crus-galli; settings: for Barnyardgrass plant response rating: scale 0 to 100 (0 no effect, 100 complete control); for Plant response rating, Barnyardgrass: scale 0 to 100, 0 no effect, 100 complete control
Procedure, shortened: as §1

[12] = system: Italian ryegrass; test: Test E preemergence; format: in vivo, Lolium multiflorum; settings: for Ryegrass, Italian plant response rating: scale 0 to 100 (0 no effect, 100 complete control)
Procedure, shortened: as §1

[13] = system: kochia; test: Test E preemergence; format: in vivo, Kochia scoparia; settings: for Kochia plant response rating: scale 0 to 100 (0 no effect, 100 complete control)
Procedure, shortened: as §1

[14] = system: fall panicum; test: Test E preemergence; format: in vivo, Panicum dichotomiflorum; settings: for Panicum, Fall plant response rating: scale 0 to 100 (0 no effect, 100 complete control)
Procedure, shortened: as §1

[15] = system: large (Lg) crabgrass; test: Test E preemergence; format: in vivo, Digitaria sanguinalis; settings: for Crabgrass, Large plant response rating: scale 0 to 100 (0 no effect, 100 complete control)
Procedure, shortened: as §1

[16] = system: goosegrass; test: Test E preemergence; format: in vivo, Eleusine indica; settings: for Goosegrass plant response rating: scale 0 to 100 (0 no effect, 100 complete control)
Procedure, shortened: as §1

[17] = 125 g ai/ha, scale 0 to 100, 0 no effect, 100 complete control

N#Cc1cccc(Oc2ncc(F)cn2)c1-n1cc(I)cn1 [Compound 86]
Foxtail, Giant plant response rating ([1]; 16 g ai/ha): 0
Foxtail, Giant plant response rating ([1]; 31 g ai/ha): 15
Foxtail, Giant plant response rating ([1]; 62 g ai/ha): 30
Plant response rating, Foxtail, Giant [1, 17]: 100
Surinam Grass plant response rating ([2]; 16 g ai/ha): 0
Surinam Grass plant response rating ([2]; 31 g ai/ha): 0
Surinam Grass plant response rating ([2]; 62 g ai/ha): 0
Plant response rating, Surinam Grass [2, 17]: 0
Soybean plant response rating ([3]; 16 g ai/ha): 0
Soybean plant response rating ([3]; 31 g ai/ha): 0
Soybean plant response rating ([3]; 62 g ai/ha): 35
Plant response rating, Soybean [3, 17]: 60
Plant response rating, Kochia ([4]; 125 g ai/ha): 100
Plant response rating, Kochia ([4]; 500 g ai/ha): 100
Beggarticks plant response rating ([5]; 16 g ai/ha, preemergence): 0
Beggarticks plant response rating ([5]; 31 g ai/ha, preemergence): 0
Plant response rating, Beggarticks ([5]; Preemergence, 62 g ai/ha): 35
Plant response rating, Beggarticks ([5]; preemergence, 125 g ai/ha): 70
Morningglory plant response rating ([6]; 16 g ai/ha): 0
Morningglory plant response rating ([6]; 31 g ai/ha): 10
Morningglory plant response rating ([6]; 62 g ai/ha): 30
Plant response rating, Morningglory [6, 17]: 75
Sandbur plant response rating ([7]; 16 g ai/ha): 0
Sandbur plant response rating ([7]; 31 g ai/ha): 10
Sandbur plant response rating ([7]; 62 g ai/ha): 10
Plant response rating, Sandbur [7, 17]: 10
Ragweed plant response rating ([8]; 16 g ai/ha): 0
Ragweed plant response rating ([8]; 31 g ai/ha): 0
Ragweed plant response rating ([8]; 62 g ai/ha): 5
Plant response rating, Ragweed [8, 17]: 20
Nightshade plant response rating ([9]; 16 g ai/ha): 0
Nightshade plant response rating ([9]; 31 g ai/ha): 0
Nightshade plant response rating ([9]; 62 g ai/ha): 0
Plant response rating, Nightshade [9, 17]: 98
Plant response rating, Ragweed ([10]; 125 g ai/ha): 90
Plant response rating, Ragweed ([10]; 500 g ai/ha): 100
Barnyardgrass plant response rating ([11]; 16 g ai/ha, preemergence): 0
Barnyardgrass plant response rating ([11]; 31 g ai/ha, preemergence): 0
Plant response rating, Barnyardgrass ([11]; Preemergence, 62 g ai/ha): 0
Plant response rating, Barnyardgrass ([11]; preemergence, 125 g ai/ha): 30
Ryegrass, Italian plant response rating ([12]; 16 g ai/ha): 0
Ryegrass, Italian plant response rating ([12]; 31 g ai/ha): 0
Ryegrass, Italian plant response rating ([12]; 62 g ai/ha): 0
Plant response rating, Ryegrass, Italian [12, 17]: 5
Kochia plant response rating ([13]; 16 g ai/ha): 0
Kochia plant response rating ([13]; 31 g ai/ha): 90
Kochia plant response rating ([13]; 62 g ai/ha): 100
Plant response rating, Kochia [13, 17]: 100
Panicum, Fall plant response rating ([14]; 16 g ai/ha): 0
Panicum, Fall plant response rating ([14]; 31 g ai/ha): 35
Panicum, Fall plant response rating ([14]; 62 g ai/ha): 90
Plant response rating, Panicum, Fall [14, 17]: 100
Crabgrass, Large plant response rating ([15]; 16 g ai/ha): 0
Crabgrass, Large plant response rating ([15]; 31 g ai/ha): 0
Crabgrass, Large plant response rating ([15]; 62 g ai/ha): 95
Plant response rating, Crabgrass, Large [15, 17]: 98
Goosegrass plant response rating ([16]; 16 g ai/ha): 0
Goosegrass plant response rating ([16]; 31 g ai/ha): 0
Goosegrass plant response rating ([16]; 62 g ai/ha): 50
Plant response rating, Goosegrass [16, 17]: 50
